PubChem BioAssay AID330 (DTP/NCI, 2004)
Where “and” joins values, the source holds several entries; their conditions need not be identical. Identical values can stand only once. Toxic doses and inconclusive results are not listed. The calls were made as follows: active = survival T/C of 150% or more; inactive = T/C below 125% in these data.

Tested on: P388 leukemia ip, CD2F1 mice, survival T/C
Assay: NCI In Vivo Anticancer Drug Screen. Data for tumor model P388 Leukemia (intraperitoneal) in CD2F1 (CDF1) mice
Conditions: endpoint: median survival time, higher = longer survival
Method in brief: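 Mice carrying the transplanted tumor received test compound or vehicle. Survival was recorded in each group, and the value is the treated-group measurement divided by that of the vehicle-treated control group.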

[1] = dose: 12.5 mg/kg/injection, schedule: Q01DX009 (ip), vehicle: saline with Tween-80
[2] = dose: 25.0 mg/kg/injection, schedule: Q01DX009 (ip), vehicle: saline with Tween-80
[3] = dose: 50.0 mg/kg/injection, schedule: Q01DX009 (ip), vehicle: saline with Tween-80
[4] = dose: 100.0 mg/kg/injection, schedule: Q01DX009 (ip), vehicle: saline with Tween-80
[5] = dose: 50.0 mg/kg/injection, schedule: Q01DX009 (ip), vehicle: Klucel (hydroxypropylcellulose) (HPC)
[6] = dose: 100.0 mg/kg/injection, schedule: Q01DX009 (ip), vehicle: Klucel (hydroxypropylcellulose) (HPC)
[7] = dose: 50.0 mg/kg/injection, schedule: Q01DX001 (ip), vehicle: saline with Tween-80
[8] = dose: 100.0 mg/kg/injection, schedule: Q01DX001 (ip), vehicle: saline with Tween-80
[9] = dose: 200.0 mg/kg/injection, schedule: Q01DX001 (ip), vehicle: saline with Tween-80
[10] = dose: 50.0 mg/kg/injection, schedule: Q01DX005 (ip), vehicle: Klucel (hydroxypropylcellulose) (HPC)
[11] = dose: 100.0 mg/kg/injection, schedule: Q01DX005 (ip), vehicle: Klucel (hydroxypropylcellulose) (HPC)
[12] = dose: 200.0 mg/kg/injection, schedule: Q01DX005 (ip), vehicle: Klucel (hydroxypropylcellulose) (HPC)
[13] = dose: 200.0 mg/kg/injection, schedule: Q01DX009 (ip), vehicle: Klucel (hydroxypropylcellulose) (HPC)

Measured: T/C

Cc1cc(N(C)C)nc2cc(N(C)C)ccc12
inactive: [1] 93 % of control | [2] 103 % of control | [3] 95 % of control and 98 % of control

NC(=S)c1cccc(C=Nc2ccccc2)n1
inactive: dose: 12.5 mg/kg/injection, schedule: Q04DX003 (ip), vehicle: Klucel (hydroxypropylcellulose) (HPC) 106 % of control | dose: 25.0 mg/kg/injection, schedule: Q04DX003 (ip), vehicle: Klucel (hydroxypropylcellulose) (HPC) 105 % of control | dose: 50.0 mg/kg/injection, schedule: Q04DX003 (ip), vehicle: Klucel (hydroxypropylcellulose) (HPC) 97 % of control | dose: 100.0 mg/kg/injection, schedule: Q04DX003 (ip), vehicle: Klucel (hydroxypropylcellulose) (HPC) 91 % of control

NC(=Nc1ccccc1)N(c1ccccc1)c1nc(=S)ss1
inactive: dose: 100.0 mg/kg/injection, schedule: Q04DX002 (ip), vehicle: saline with Tween-80 104 % of control | dose: 200.0 mg/kg/injection, schedule: Q04DX002 (ip), vehicle: saline with Tween-80 93 % of control | dose: 400.0 mg/kg/injection, schedule: Q04DX002 (ip), vehicle: saline with Tween-80 87 % of control

CCCC(=O)Nc1ccc([N+](=O)[O-])cc1OC
inactive: dose: 100.0 mg/kg/injection, schedule: Q04DX003 (ip), vehicle: saline with Tween-80 88 % of control | dose: 200.0 mg/kg/injection, schedule: Q04DX003 (ip), vehicle: saline with Tween-80 100 % of control | dose: 400.0 mg/kg/injection, schedule: Q04DX003 (ip), vehicle: saline with Tween-80 100 % of control

CC(O)C(c1ccccc1)S(C)(=O)=O (stereo not drawn)
inactive: [2] 101 % of control | [3] 110 % of control | [4] 116 % of control | dose: 200.0 mg/kg/injection, schedule: Q01DX009 (ip), vehicle: saline with Tween-80 113 % of control

Cc1cccc(/N=C/c2ccccc2O)n1
inactive: [5] 91 % of control | [6] 86 % of control

CSc1ncc(Br)c(Sc2nc(N)nc3nc[nH]c23)n1
inactive: [1] 95 % of control | [2] 86 % of control

O=C1/C(=C/c2ccc([N+](=O)[O-])cc2)Cc2c1cccc2[N+](=O)[O-]
inactive: dose: 25.0 mg/kg/injection, schedule: Q01DX001 (ip), vehicle: saline with Tween-80 98 % of control | [7] 98 % of control | [8] 99 % of control and 95 % of control | [9] 93 % of control | dose: 400.0 mg/kg/injection, schedule: Q01DX001 (ip), vehicle: saline with Tween-80 89 % of control

CC(C)CC1CCCC12NC(=O)NC2=O (stereo not drawn)
inactive: [10] 97 % of control | [11] 89 % of control | [12] 93 % of control

CCN(CC)C(=O)C(C)C1=NS(=O)(=O)c2ccccc21 (stereo not drawn)
inactive: dose: 75.0 mg/kg/injection, schedule: Q04DX003 (ip), vehicle: Klucel (hydroxypropylcellulose) (HPC) 101 % of control | dose: 150.0 mg/kg/injection, schedule: Q04DX003 (ip), vehicle: Klucel (hydroxypropylcellulose) (HPC) 99 % of control | dose: 300.0 mg/kg/injection, schedule: Q04DX003 (ip), vehicle: Klucel (hydroxypropylcellulose) (HPC) 100 % of control

COc1ccc2c(NCCCCCCCCCCNc3c4ccccc4nc4cc(OC)ccc34)c3ccccc3nc2c1
active: dose: 2.5 mg/kg/injection, schedule: Q01DX009 (ip), vehicle: other 153 % of control | dose: 5.0 mg/kg/injection, schedule: Q01DX009 (ip), vehicle: other 155 % of control

CN(C)C(=O)ONC(=O)c1ccccc1
inactive: [5] 105 % of control | [6] 109 % of control | [13] 108 % of control

COC(=O)C(Cl)c1ccc2c(c1)OCO2 (stereo not drawn)
inactive: [2] 100 % of control | [3] 90 % of control | [4] 95 % of control

NC(CCC(=O)NC(CS)C(=O)NCC(=O)O)C(=O)O.[CH2-]CCC.[CH2-]CCC.[CH2-]CCC.[CH2-]CCC.[Ti+4] (stereo not drawn)
inactive: dose: 50.0 mg/kg/injection, schedule: Q01DX005 (ip), vehicle: saline with Tween-80 103 % of control | dose: 100.0 mg/kg/injection, schedule: Q01DX005 (ip), vehicle: saline with Tween-80 89 % of control

COC(=O)C1c2cc3c(c(O)c2C(OC2OC(C)C(OC)C(C)(OC)C2OC)CC1(C)O)C(=O)c1c(O)cc2c(c1C3=O)OC1OC2(C)C(OC(C)=O)C(N(C)C)C1OC(C)=O (stereo not drawn)
inactive: dose: 3.12 mg/kg/injection, schedule: Q04DX003 (ip), vehicle: other 87 % of control | dose: 6.25 mg/kg/injection, schedule: Q04DX003 (ip), vehicle: other 103 % of control

CC1C/C(=C\N=[N+]=[N-])C(=O)O1 (stereo not drawn)
inactive: dose: 15.0 mg/kg/injection, schedule: Q01DX005 (ip), vehicle: saline with Tween-80 107 % of control | dose: 30.0 mg/kg/injection, schedule: Q01DX005 (ip), vehicle: saline with Tween-80 105 % of control | dose: 60.0 mg/kg/injection, schedule: Q01DX005 (ip), vehicle: saline with Tween-80 105 % of control and 94 % of control

CC(Cl)CN(CC(C)Cl)C(=O)Oc1ccc(CC(N)C(=O)O)cc1 (stereo not drawn)
inactive: [5] 91 % of control | [6] 89 % of control | [13] 97 % of control

CN1Cc2c(c3c(n2C)CCCC3=O)C(O)C1 (stereo not drawn)
inactive: dose: 50.0 mg/kg/injection, schedule: Q04DX002 (ip), vehicle: saline 106 % of control | dose: 100.0 mg/kg/injection, schedule: Q04DX002 (ip), vehicle: saline 100 % of control | dose: 200.0 mg/kg/injection, schedule: Q04DX002 (ip), vehicle: saline 102 % of control

O=[N+]([O-])c1cccc(C2CC(c3ccccc3)=Nc3ccccc3S2)c1 (stereo not drawn)
inactive: [5] 107 % of control | [6] 100 % of control

COc1cc2c(c(OC)c1OC)-c1cccc(=O)cc1C(NC(C)=O)CC2 (stereo not drawn)
inactive: dose: 1.25 mg/kg/injection, schedule: Q01DX009 (ip), vehicle: Klucel (hydroxypropylcellulose) (HPC) 121 % of control | dose: 2.5 mg/kg/injection, schedule: Q01DX005 (ip), vehicle: saline 100 % of control | dose: 5.0 mg/kg/injection, schedule: Q01DX005 (ip), vehicle: saline 101 % of control | dose: 10.0 mg/kg/injection, schedule: Q01DX005 (ip), vehicle: saline 104 % of control | dose: 20.0 mg/kg/injection, schedule: Q01DX005 (ip), vehicle: saline 99 % of control | dose: 40.0 mg/kg/injection, schedule: Q01DX005 (ip), vehicle: saline 104 % of control
active: dose: 5.0 mg/kg/injection, schedule: Q01DX009 (ip), vehicle: Klucel (hydroxypropylcellulose) (HPC) 150 % of control and 155 % of control | dose: 10.0 mg/kg/injection, schedule: Q01DX009 (ip), vehicle: Klucel (hydroxypropylcellulose) (HPC) 176 % of control and 179 % of control | dose: 20.0 mg/kg/injection, schedule: Q01DX009 (ip), vehicle: Klucel (hydroxypropylcellulose) (HPC) 233 % of control and 250 % of control

CCc1nn2c(=O)nc(SC)nc2s1
inactive: dose: 12.5 mg/kg/injection, schedule: Q04DX003 (ip), vehicle: saline with Tween-80 102 % of control | dose: 25.0 mg/kg/injection, schedule: Q04DX003 (ip), vehicle: saline with Tween-80 100 % of control | dose: 50.0 mg/kg/injection, schedule: Q04DX003 (ip), vehicle: saline with Tween-80 102 % of control

CCCCCCCCCC[N+]1([O-])CCCCC1
inactive: dose: 50.0 mg/kg/injection, schedule: Q01DX009 (ip), vehicle: saline 97 % of control

O=C1Nc2ccc(Br)cc2/C1=N/n1c(-c2ccccc2)nc2ccccc2c1=O
inactive: [10] 86 % of control | [11] 87 % of control | [12] 100 % of control

CC1=C(CO)C(=O)OC(C(C)C2CCC3C4CC5OC56C(O)C(N5CC5(C)C)CC(=O)C6(C)C4CCC23C)C1 (stereo not drawn)
inactive: dose: 8.75 mg/kg/injection, schedule: Q01DX005 (ip), vehicle: Klucel (hydroxypropylcellulose) (HPC) 108 % of control | dose: 17.5 mg/kg/injection, schedule: Q01DX005 (ip), vehicle: Klucel (hydroxypropylcellulose) (HPC) 99 % of control | dose: 35.0 mg/kg/injection, schedule: Q01DX005 (ip), vehicle: Klucel (hydroxypropylcellulose) (HPC) 99 % of control | dose: 70.0 mg/kg/injection, schedule: Q01DX005 (ip), vehicle: Klucel (hydroxypropylcellulose) (HPC) 108 % of control | dose: 140.0 mg/kg/injection, schedule: Q01DX005 (ip), vehicle: Klucel (hydroxypropylcellulose) (HPC) 105 % of control

Nc1nc(Cc2ccccc2)c(CCCNc2ccccc2)c(=O)[nH]1
inactive: dose: 0.78 mg/kg/injection, schedule: Q01DX009 (ip), vehicle: saline 100 % of control | dose: 1.56 mg/kg/injection, schedule: Q01DX009 (ip), vehicle: saline 100 % of control | dose: 3.13 mg/kg/injection, schedule: Q01DX009 (ip), vehicle: saline 102 % of control | dose: 6.25 mg/kg/injection, schedule: Q01DX009 (ip), vehicle: saline 100 % of control

COn1nnc2ccc([N+](=O)[O-])cc21
inactive: [7] 99 % of control | [8] 101 % of control | [9] 92 % of control
